Biological target: estrogen receptor alpha (ESR1) (Homo sapiens, UniProt P03372)
Assay: cell-based
Details: for ER-alpha MCF7 HCS Sinf: MCF7 breast cancer cells, 4 hours, plateau of the maximal effect, DMSO and Fulvestrant define 0% and 100% changes in ESR1
Method: Where more than one name is associated with a Formula I compound or intermediate, the chemical structure shall define the compound.
Cell plates were incubated at 37° C., for 4 hours. Fixation and permeabilization were carried out using a Biotek EL406 plate washer and dispenser as follows. […] Samples were incubated 30 minutes. Well contents was aspirated and 50 ul/well of Phosphate Buffered Saline (PBS) containing 0.5% w/v bovine serum albumen, 0.5% v/v Triton X-100 (Antibody Dilution Buffer) was added to each well. Samples were incubated for 30 minutes. Well contents were aspirated and washed 3 times with 100 ul/well of PBS. Immunofluorescence staining of estrogen receptor alpha (ESR1) was carried out using a Biotek EL406 plate washer and dispenser as follows. […] Samples were incubated for 2 hours at room temperature. Samples were washed 4 times with 100 ul/well of PBS. […] Samples were incubated for 2 hours at room temperature. Samples were washed 3 times with 100 ul/well of PBS using a Biotek EL406. Quantitative fluorescence imaging of ESR1 was carried out using a Cellomics Arrayscan V (Thermo). […] Channel 1 (DNA stain) was used to define the nuclear region (Circ). […] Data analysis was carried out using Genedata Screener Software, with DMSO and 5 nM Fulvestrant treated samples being used to define the 0% and 100% changes in ESR1. The “Robust Fit” method was used to define the inflexion point of curve (EC50) and the plateau of the maximal effect (Sin f).

Sequence of estrogen receptor alpha (ESR1) (P03372 whole entry): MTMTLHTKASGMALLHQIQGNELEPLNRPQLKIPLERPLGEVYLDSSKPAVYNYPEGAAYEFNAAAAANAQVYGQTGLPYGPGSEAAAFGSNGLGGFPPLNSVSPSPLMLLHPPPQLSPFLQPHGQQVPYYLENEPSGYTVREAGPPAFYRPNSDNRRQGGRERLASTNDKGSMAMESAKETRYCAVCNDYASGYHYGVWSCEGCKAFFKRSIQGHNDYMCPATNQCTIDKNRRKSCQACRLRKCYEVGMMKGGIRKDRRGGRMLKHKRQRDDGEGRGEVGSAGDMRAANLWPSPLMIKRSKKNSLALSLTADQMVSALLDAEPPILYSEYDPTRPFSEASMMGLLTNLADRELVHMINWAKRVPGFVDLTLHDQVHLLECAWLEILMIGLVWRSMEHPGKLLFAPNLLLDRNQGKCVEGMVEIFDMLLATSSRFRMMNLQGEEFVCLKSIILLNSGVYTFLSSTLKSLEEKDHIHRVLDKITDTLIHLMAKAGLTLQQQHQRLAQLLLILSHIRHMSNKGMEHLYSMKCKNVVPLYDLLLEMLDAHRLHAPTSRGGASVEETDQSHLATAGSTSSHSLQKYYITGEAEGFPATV

## CC/C(=C(\c1ccc(O)cc1)c1ccc(OC[C@H](C)N2CC[C@@H](CF)C2)cc1)c1ccccc1 [Example 24, 4-((Z)-1-(4-((S)-2-((R)-3-(Fluoromethyl)pyrrolidin-1-yl)propoxy)phenyl)-2-phenylbut-1-en-1-yl)phenol]
  EC50: 0.18 nM
  ER-alpha MCF7 HCS Sinf: −58%

## CC/C(=C(/c1ccc(OCCN2CC(CF)C2)cc1)c1ccc2[nH]ncc2c1)c1ccccc1 [Example 25, (E)-5-(1-(4-(2-(3-(Fluoromethyl)azetidin-1-yl)ethoxy)phenyl)-2-phenylbut-1-en-1-yl)-1H-indazole]
  EC50: 1.5 nM
  ER-alpha MCF7 HCS Sinf: −92%

## COc1ccc(/C(=C(\c2ccc(OCCN3CC[C@@H](CF)C3)cc2)c2ccc3[nH]nc(F)c3c2)C2CCC2)c(Cl)c1 [Example 26, (R,E)-5-(2-(2-Chloro-4-methoxyphenyl)-2-cyclobutyl-1-(4-(2-(3-(fluoromethyl)pyrrolidin-1-yl)ethoxy)phenyl)vinyl)-3-fluoro-1H-indazole]
  EC50: 0.6 nM
  ER-alpha MCF7 HCS Sinf: −75%

## FC[C@@H]1CCN(CCOc2ccc(/C(=C(\c3ncc(C(F)(F)F)cc3Cl)C3CCC3)c3ccc4[nH]nc(F)c4c3)cc2)C1 [Example 27, (R,E)-5-(2-(3-Chloro-5-(trifluoromethyl)pyridin-2-yl)-2-cyclobutyl-1-(4-(2-(3-(fluoromethyl)pyrrolidin-1-yl)ethoxy)phenyl)vinyl)-3-fluoro-1H-indazole]
  EC50: 0.85 nM
  ER-alpha MCF7 HCS Sinf: −73%

## O=C(C1=C(c2ccc(O)cc2)CCc2cc(O)ccc21)c1ccc(OCCN2CC(CF)C2)cc1 [Example 32, (4-(2-(3-(Fluoromethyl)azetidin-1-yl)ethoxy)phenyl)(6-hydroxy-2-(4-hydroxyphenyl)-3,4-dihydronaphthalen-1-yl)methanone]
  EC50: 0.19 nM
  ER-alpha MCF7 HCS Sinf: −101%

## O=C(c1ccc(OCCN2CC(CF)C2)cc1)c1c(-c2ccc(F)c(F)c2)sc2cc(O)ccc12 [Example 35, (2-(3,4-difluorophenyl)-6-hydroxybenzo[b]thiophen-3-yl)(4-(2-(3-(fluoromethyl)azetidin-1-yl)ethoxy)phenyl)methanone]
  EC50: 0.55 nM
  ER-alpha MCF7 HCS Sinf: −98%

## Cc1cc(-c2sc3cc(O)ccc3c2C(=O)c2ccc(OCCN3CC(CF)C3)cc2)ccc1F [Example 36, (2-(4-fluoro-3-methylphenyl)-6-hydroxybenzo[b]thiophen-3-yl)(4-(2-(3-(fluoromethyl)azetidin-1-yl)ethoxy)phenyl)methanone]
  EC50: 2.5 nM
  ER-alpha MCF7 HCS Sinf: −97%

## O=C(c1ccc(OCCN2CC(CF)C2)cc1)c1c(-c2ccc(F)c(Cl)c2)sc2cc(O)ccc12 [Example 37, (2-(3-chloro-4-fluorophenyl)-6-hydroxybenzo[b]thiophen-3-yl)(4-(2-(3-(fluoromethyl)azetidin-1-yl)ethoxy)phenyl)methanone]
  EC50: 4.4 nM
  ER-alpha MCF7 HCS Sinf: −97%

## Cc1cc(F)ccc1-c1sc2cc(O)ccc2c1C(=O)c1ccc(OCCN2CC(CF)C2)cc1 [Example 38, (2-(4-fluoro-2-methylphenyl)-6-hydroxybenzo[b]thiophen-3-yl)(4-(2-(3-(fluoromethyl)azetidin-1-yl)ethoxy)phenyl)methanone]
  EC50: 0.88 nM
  ER-alpha MCF7 HCS Sinf: −96%

## O=C(c1ccc(OCCN2CC(CF)C2)cc1)c1c(-c2ccccc2)sc2cc(O)ccc12 [Example 39, (4-(2-(3-(fluoromethyl)azetidin-1-yl)ethoxy)phenyl)(6-hydroxy-2-phenylbenzo[b]thiophen-3-yl)methanone]
  EC50: 1.6 nM
  ER-alpha MCF7 HCS Sinf: −96%

## Cc1cc(-c2c(C)c3cc(O)ccc3n2Cc2ccc(OCCN3CC(CF)C3)cc2)ccc1O [Example 41, 1-[[4-[2-[3-(fluoromethyl)azetidin-1-yl]ethoxy]phenyl]methyl]-2-(4-hydroxy-3-methyl-phenyl)-3-methyl-indol-5-ol]
  EC50: 0.0518 nM
  ER-alpha MCF7 HCS Sinf: −97.8%

— patent US9845291B2, “Estrogen receptor modulators and uses thereof” (Genentech, Inc., priority 2014, dated 2017)
